Source: patent US8742112B2, “Heterocyclic compound and its use for control of an arthropod pest” (Sumitomo Chemical Company, Limited, priority 2009, dated 2014)

Columns and labels:
[1] = tested on: Bemisia tabaci; test: Test Example 4: spray on tomato seedling carrying Bemisia tabaci eggs/larvae; format: in vivo; details: 200 ppm, 10 ml/cup sprayed on tomato seedling, larvae checked after 7 days at 25° C., Formulation Example 5
Protocol: The present compounds (1), (4) to (7), (9) to (12) and (14) to (19) were formulated by the method in Formulation Example 5. This formulation was diluted with water so that the active ingredient concentration was 200 ppm, to prepare a diluted solution for test. On a tomato seedling planted in a plastic cup, Bemisia tabaci adult insects were released and allowed to lay eggs for about 24 hours. The tomato seedling was left in a greenhouse for 8 days. Thereafter, the diluted solution for test was sprayed in a proportion of 10 ml/cup. Further, this tomato seedling was placed in a greenhouse at 25° C. for 7 days. Thereafter, the number of larvae living on the tomato leaves was checked, and the control value was calculated according to the following formula. Control value (%)={1−(Cb×Tai)/(Cai×Tb)}×100 Letters in the formula represent the following meanings. Cb: insect number before treatment on non-treated area Cai: insect number in observation on non-treated area Tb: insect number before treatment on treated area Tai: insect number in observation on treated area

[2] = tested on: Aphis gossypii; test: Test Example 3: treatment of the foot of a cucumber seedling, then inoculation with Aphis gossypii; format: in vivo; details: 200 ppm, 5 ml at foot of cucumber seedling, inoculated after 7 days at 25° C., checked after 6 days, Formulation Example 5
Protocol: The present compound (7) was formulated by the method in Formulation Example 5. This formulation was diluted with water so that the active ingredient concentration was 200 ppm, to prepare a diluted solution for test. The diluted solution for test (5 ml) was used to treat a foot of a cucumber seedling (first true leaf spreading stage) planted in a plastic cup. This cucumber was left in a greenhouse at 25° C. for 7 days. Then; the cucumber leaf surface was inoculated with 30 Aphis gossypii (whole stage). This cucumber was further left in the greenhouse for 6 days, then, the insect number of living Aphis gossypii parasitic on the leaves of this cucumber was checked, and the control value was calculated according to the following formula. Control value (%)={1−(Cb×Tai)/(Cai×Tb)}×100 Letters in the formula represent the following meanings. Cb: insect number before treatment on non-treated area Cai: insect number in observation on non-treated area Tb: insect number before treatment on treated area Tai: insect number in observation on treated area

For Fc1cnccc1-c1nc2cc(C(F)(F)F)ccc2s1 [compound 1], the Control value [1] was ≥ 90%.

For CCS(=O)(=O)c1cnccc1-c1nc2cc(C(F)(F)F)ccc2s1 [compound 7], the Control value [2] was ≥ 90%.
